Experimental data from patent US8747537B2, “Ink containing heterocyclic azo dye, and dye for use in said ink” (Mitsubishi Chemical Corporation, priority 2010, dated 2014).

Tests used:
[1] = Solubility test in low-polarity solvents (saturated solution, λmax, solubility, εC); assay type: physicochemical; conditions: for Solubility: saturated solution
Experimental: The solubility of each dye in n-decane, tetradecane, Isopar M, Isopar G, and decalin was examined in the following manner. Each dye was added to each solvent until a dissolution residue came to remain, and this mixture was subjected to a 30-minute ultrasonic treatment at 30 degrees. The resultant mixture was allowed to stand at 5° C. for 24 hours and then subjected to centrifugal filtration (centrifugal force, 5,200×g) with a 0.1-μm filter using a microcentrifuge. The saturated solution obtained was diluted to an adequate concentration, and the solubility of each dye was calculated from a relationship with an extinction coefficient determined beforehand. Furthermore, the value of the product of the molar extinction coefficient ε (Lmol^−1cm^−1) and the concentration C (molL^−1) of the saturated solution, εC, was determined.
Sudan Black B (manufactured by Tokyo Kasei Kogyo Co., Ltd.), which is a commercial oil-soluble black dye, was added to n-decane until a dissolution residue came to remain, and this mixture was subjected to a 30-minute ultrasonic treatment at 30 degrees. The resultant mixture was allowed to stand at 5° C. for 24 hours and then subjected to centrifugal filtration (centrifugal force, 5,200×g) with a 0.1-μm filter using a microcentrifuge. The saturated n-decane solution obtained was diluted to an adequate concentration, and the solubility of the dye was calculated from a relationship with an extinction coefficient determined beforehand.

[2] = Light fastness test (retention of dye after 2 hours of high-pressure mercury lamp irradiation); assay type: physicochemical; conditions: 1 mg in 250 mL, 2 hours irradiation
Experimental: The light fastness of each dye was examined in the following manner. One milligram of each dye was dissolved in 250 mL of each of n-decane, tetradecane, Isopar M, and Isopar G, and the solution was irradiated with light for 2 hours using photoreaction apparatus UVL-400HA (400-W high-pressure mercury lamp), manufactured by Riko-Kagaku Sangyo Co., Ltd. During the irradiation, the vessel was cooled with a coolant to keep the internal temperature at 10-30° C. The retention of the dye was determined through the following calculation to evaluate the light fastness. Retention of dye=(absorbance at absorption-maximum wavelength after irradiation)/(absorbance at absorption-maximum wavelength before irradiation)

[3] = n-decane, stood at 5° C. for 24 hours, 0.1-μm filter
[4] = n-decane, 400-W high-pressure mercury lamp

Row | SMILES | εC ([1]; Isopar G) | λmax (absorption-maximum wavelength) ([1]; Isopar G solution) | Solubility ([1]; Isopar G) | εC ([1]; Isopar M) | λmax (absorption-maximum wavelength) ([1]; Isopar M solution) | Solubility ([1]; Isopar M) | εC (molar extinction coefficient × concentration of saturated solution) ([1]; n-decane) | λmax (absorption-maximum wavelength) ([1]; n-decane solution) | Solubility [1, 3] | εC ([1]; tetradecane) | λmax (absorption-maximum wavelength) ([1]; tetradecane solution) | Solubility ([1]; tetradecane) | Light fastness: retention of dye [2, 4] | also measured
1 | CCCCC(CC)CNc1ccc(NCC(CC)CCCC)c2c1C(=O)c1ccccc1C2=O (centres unmarked) [Comparative dye 2, reference compound] | 1200 cm⁻¹ | 649 nm | 4.3% | 1000 cm⁻¹ | 650 nm | 3.6% | 2000 cm⁻¹ | 652 nm | 6.6% | 1600 cm⁻¹ | 651 nm | 5.7% | 92% | εC ([1]; decalin): 3400 cm⁻¹; λmax (absorption-maximum wavelength) ([1]; decalin solution): 645 nm; Solubility ([1]; decalin): 9.98%; εC (in words) ([1]; each of the low-polarity solvents): small value; λmax (in words) ([1]; low-polarity solvents): large value; Light fastness: retention of dye ([2]; Isopar G): 85%; Light fastness: retention of dye ([2]; Isopar M): 90%; Light fastness: retention of dye ([2]; tetradecane): 99%
2 | C=Cn1c(N=Nc2ccc(N(CCCC)CCCC)cc2NC(C)=O)nc(C#N)c1C#N [Comparative dye 3, reference compound] | ≦10 cm^−1 |  | ≦0.01% | ≦10 cm^−1 |  | ≦0.01% | ≦10 cm^−1 |  | ≦0.01% | ≦10 cm^−1 |  | ≦0.01% | 76% | εC ([1]; decalin): ≦10 cm^−1; λmax (absorption-maximum wavelength) ([1]; decalin solution): 520 nm; Solubility ([1]; decalin): ≦0.01%
3 | CCc1nsc(N=Nc2ccc(N(CC(C)C)CC(C)C)cc2NC(C)=O)c1C#N [Dye 1] |  |  |  |  |  |  | 1000 cm⁻¹ | 538 nm | 1.1% |  |  |  | 97% | 
4 | CCCCC(CC)CN(CC(CC)CCCC)c1ccc(N=Nc2sc(C(=O)OCC)c(C)c2C(=O)OCC)c(NC(C)=O)c1 (centres unmarked) [Dye 3] |  |  |  |  |  |  | 1300 cm⁻¹ | 537 nm | 2.4% |  |  |  | 92% | 
5 | CCCCCCCCN(CC(CC)CCCC)c1ccc(/N=N/c2snc(C)c2C#N)c(C)c1 (centres unmarked) [Dye 5] |  |  |  |  |  |  | 1300 cm⁻¹ | 523 nm | 2.1% |  |  |  |  | 
6 | CCCCC(CC)CN(CC(CC)CCCC)c1ccc(/N=N/c2sc(C(=O)OCC)c(C)c2C(=O)OCC)c(C)c1 (centres unmarked) [Dye 6] |  |  |  |  |  |  | 3200 cm⁻¹ | 504 nm | 8.4% |  |  |  |  | 
7 | CCCCC(CC)CN(CC(CC)CCCC)c1ccc(/N=N/c2sc(C(=O)OCC)c(C)c2C(=O)OCC)c(NC(=O)CC)c1 (centres unmarked) [Dye 7] | 6000 cm⁻¹ | 535 nm | 10% | 6300 cm⁻¹ | 536 nm | 10% | 5700 cm⁻¹ | 536 nm | 10.3% | 5400 cm⁻¹ | 538 nm | 9.7% | 98% | Light fastness: retention of dye ([2]; Isopar G): 98%; Light fastness: retention of dye ([2]; Isopar M): 87%; Light fastness: retention of dye ([2]; tetradecane): 81%
8 | CCCCC(CC)CN(CC)c1ccc(/N=N/c2snc(CC)c2C#N)c(NC(C)=O)c1 (centres unmarked) [Dye 11] |  |  |  |  |  |  | 4300 cm⁻¹ | 535 nm | 4.2% |  |  |  |  | 
9 | CCCCc1nsc(/N=N/c2ccc(N(CC(C)C)CC(C)C)cc2NC(C)=O)c1C#N [Dye 12] |  |  |  |  |  |  | 4100 cm⁻¹ | 543 nm | 5.7% |  |  |  |  | 
10 | CCCCC(CC)CN(CC(CC)CCCC)c1cc(C)c(/N=N/c2snc(C)c2C#N)cc1OC (centres unmarked) [Dye 16] |  |  |  |  |  |  | 2300 cm⁻¹ | 563 nm | 3.7% |  |  |  |  | 
11 | CCOC(=O)c1sc(/N=N/c2ccc(N(CC(C)C)CC(C)C)cc2C)c(C(=O)OCC)c1C [Dye 18] |  |  |  |  |  |  | 1000 cm⁻¹ | 498 nm | 1.7% |  |  |  |  | 
12 | CCCCC(CC)CN(CC(CC)CCCC)c1ccc(/N=N/c2sc(C(=O)OCC)c(C)c2C#N)c(CC)c1 (centres unmarked) [Dye 20] |  |  |  |  |  |  | 6000 cm⁻¹ | 546 nm | 9.7% |  |  |  |  | 

Second part, led by results:

Row | εC ([1]; Isopar G) | λmax (absorption-maximum wavelength) ([1]; Isopar G solution) | Solubility ([1]; Isopar G) | εC ([1]; Isopar M) | λmax (absorption-maximum wavelength) ([1]; Isopar M solution) | Solubility ([1]; Isopar M) | εC (molar extinction coefficient × concentration of saturated solution) ([1]; n-decane) | λmax (absorption-maximum wavelength) ([1]; n-decane solution) | Solubility [1, 3] | εC ([1]; tetradecane) | λmax (absorption-maximum wavelength) ([1]; tetradecane solution) | Solubility ([1]; tetradecane) | Light fastness: retention of dye [2, 4] | SMILES | also measured
13 | 5000 cm⁻¹ | 542 nm | 5.7% | 4000 cm⁻¹ | 544 nm | 4.32% | 6600 cm⁻¹ | 543 nm | 7.9% | 4900 cm⁻¹ | 545 nm | 5.4% | 97% | CCCCC(CC)CN(CC(CC)CCCC)c1ccc(N=Nc2snc(C)c2C#N)c(NC(C)=O)c1 (centres unmarked) [Dye 2] | εC ([1]; decalin): 24000 cm⁻¹; λmax (absorption-maximum wavelength) ([1]; decalin solution): 547 nm; Solubility ([1]; decalin): 24.5%; Light fastness: retention of dye ([2]; Isopar G): 100%; Light fastness: retention of dye ([2]; Isopar M): 100%; Light fastness: retention of dye ([2]; tetradecane): 94%
14 | 4900 cm⁻¹ | 526 nm | 7.4% | 6000 cm⁻¹ | 530 nm | 8.51% | 5700 cm⁻¹ | 527 nm | 6.6% | 5200 cm⁻¹ | 530 nm | 6.8% | 96% | CCCCC(CC)CN(CC(CC)CCCC)c1ccc(/N=N/c2snc(CC)c2C#N)c(C)c1 (centres unmarked) [Dye 4] | εC ([1]; decalin): 5200 cm⁻¹; λmax (absorption-maximum wavelength) ([1]; decalin solution): 534 nm; Solubility ([1]; decalin): 6.5%; Light fastness: retention of dye ([2]; Isopar G): 98%; Light fastness: retention of dye ([2]; Isopar M): 95%; Light fastness: retention of dye ([2]; tetradecane): 82%
15 | 3600 cm⁻¹ | 533 nm | 5.17% | 2500 cm⁻¹ | 534 nm | 3.4% | 6500 cm⁻¹ | 533 nm | 10% | 2800 cm⁻¹ | 534 nm | 3.9% |  | CCCCC(CC)CN(CC(CC)CCCC)c1ccc(/N=N/c2snc(C)c2C#N)c(CC)c1 (centres unmarked) [Dye 8] | 
16 | 11500 cm⁻¹ | 543 nm | 13.3% | 8900 cm⁻¹ | 544 nm | 9.8% | 11000 cm⁻¹ | 543 nm | 13% | 7400 cm⁻¹ | 544 nm | 8.5% |  | CCCCC(CC)CN(CC(CC)CCCC)c1ccc(/N=N/c2snc(C)c2C#N)c(NC(=O)CC)c1 (centres unmarked) [Dye 9] | εC ([1]; decalin): 8500 cm⁻¹; λmax (absorption-maximum wavelength) ([1]; decalin solution): 547 nm; Solubility ([1]; decalin): 9.1%
17 |  |  |  |  |  |  | 3700 cm⁻¹ | 527 nm | 5.9% |  |  |  |  | CCCCc1nsc(/N=N/c2ccc(N(CC(CC)CCCC)CC(CC)CCCC)cc2C)c1C#N (centres unmarked) [Dye 13] | 
18 |  |  |  |  |  |  | 2800 cm⁻¹ | 527 nm | 4.8% |  |  |  |  | CCCCC(CC)CN(CC(CC)CCCC)c1ccc(/N=N/c2snc(C(C)C)c2C#N)c(C)c1 (centres unmarked) [Dye 14] | 
19 |  |  |  |  |  |  | 8300 cm⁻¹ | 535 nm | 9.7% |  |  |  |  | CCCCC(CC)CN(CC(CC)CCCC)c1ccc(/N=N/c2snc(C)c2C#N)c(C(C)C)c1 (centres unmarked) [Dye 15] | 
20 |  |  |  |  |  |  | 12000 cm⁻¹ | 523 nm | 9.2% |  |  |  |  | CCCCC(CC)CN(CC(CC)CCCC)c1ccc(/N=N/c2snc(C)c2C#N)cc1 (centres unmarked) [Dye 17] | 
